# Test results reported in patent publication US20230416676A1, “Method for Reprogramming Cell” (Celpaten Consulting Partnership (Limited Partnership), priority 2020, published 2023).
# Tested on: Wnt1-tdTomato- MEFs
# Test: Conversion of MEFs into ciNCCs with M6 medium (Wnt1-tdTomato lineage tracing)
# Format: cell-based, mouse
# Settings: added to Chir99021, SB431542 and forskolin (FIG. 8C)
# Protocol: The basal medium contained knockout DMEM (Gibco), 10% KSR (Gibco), 10% FBS (Gibco), 1% NEAA (Gibco), and 0.1 mM 2-mercaptoethanol (Gibco) supplemented with the small molecules CHIR99021 (3 μM), SB431542 (5 μM), Forskolin (10 μM), VPA ([…]), EPZ004777 (5 μM), and 5-Aza-dC (0.5 μM). The medium was shaken for 30 min to ensure that all components were fully dissolved.
# The MEFs were plated at 5×10^4 cells per well on six-well tissue culture plates in fibroblast medium. The culture plates were precoated with fibronectin or laminin for more than 2 hours. After overnight culture, the medium was exchanged with M6 chemical medium, which was refreshed every 2 days. NCC-like cells appeared and increased at days 3 to 5. After 7 to 10 days of induction, FACS was performed to collect Wnt1^+ cells.
# For corneal endothelium is derived from NCCs, a two-step method for reprogramming mouse fibroblasts into CEC-like cells using small molecules was designed, in which the first step was to guide mouse embryonic fibroblasts (MEFs) to be chemically reprogrammed into ciNCCs. To identify small molecules with the potential to convert fibroblasts into ciNCCs, we used a lineage tracing strategy to trace the conversion process and excluded any NCCs or progenitor cells from the starting MEFs (FIGS. 8A and 15A). Wnt1-Cre transgenic mice have been validated as a lineage-tracing reporter model for NCC development. In Wnt1-Cre/ROSA26tdTomato mice, tdTomato protein was faithfully expressed in NCCs. MEFs were thus isolated from Wnt1-Cre/ROSA26tdTomato mice at embryonic day 13.5 (E13.5). Because the NCC population was marked with tdTomato, we performed fluorescence-activated cell sorting (FACS) to collect the tdTomato^− population to exclude any NCCs or progenitors (the purified cells are hereinafter referred to as Wnt1-tdTomato-MEFs; FIG. 15B). We confirmed that the Wnt1-tdTomato^− MEFs were also negative for other NCC markers, including Sox10, P75, Pax3, HNK1, and AP2α (FIGS. 15C and 15D). Further, these Wnt1-tdTomato^− MEFs were negative for typical NSC markers, including Sox2, Pax6 and Nestin (data not shown). […]
row,SMILES,effect of individual chemical on induction of Wnt1-tdTomato+ cells
1,CC(C)N(CCCNC(=O)Nc1ccc(C(C)(C)C)cc1)C[C@H]1O[C@@H](n2ccc3c(N)ncnc32)[C@H](O)[C@@H]1O [EPZ004777],further promoted induction of Wnt1-tdTomato^+ cells
2,Nc1ncn([C@H]2C[C@H](O)[C@@H](CO)O2)c(=O)n1 [5-Aza-dC],further promoted induction of Wnt1-tdTomato^+ cells
3,"CCCC(CCC)C(=O)O [VPA, Valproic acid]",further promoted induction of Wnt1-tdTomato^+ cells
